Series [1] concerns Pseudomonas aeruginosa. The experiment in a line: Antimicrobial activity against Pseudomonas aeruginosa ATCC 27853 assessed as reduction in bacterial growth at pH 7.4 in presence of CaCl2. It counts as functional, organism-based.
Series [2] in a line: Hemolytic activity against human RBC assessed as hemoglobin release at pH 6.5 incubated for 1 hrs. It counts as toxicity, cell-based. As to conditions: erythrocyte, pH 6.5, 1 h.
A short description of series [3]: Ratio of MHC for hemolytic activity against human RBC assessed as hemoglobin release at pH 6.5 to MHC for hemolytic activity against human RBC assessed as hemoglobin release at pH 7.4. It counts as toxicity, cell-based, Erythrocyte. As to conditions: human red blood cells (RBC).
A short description of series [4]: Cytotoxicity against mouse RAW264.7 cells assessed as inhibition of cell growth at pH 7.4 measured after 24 hrs by MTT assay. It counts as toxicity, cell-based. A general note: Tetrazolium assays rely on reduction of a dye to a coloured formazan, in cell work by metabolically active cells.
Series [5] is described as follows: Hemolytic activity in human RBC assessed as hemoglobin release at pH 7.4 incubated for 1 hr. It counts as toxicity, cell-based. The note with it: erythrocyte, pH 7.4, 1 h.
The test system of series [6] is Pseudomonas aeruginosa. The experiment in a line: Antimicrobial activity against Pseudomonas aeruginosa ATCC 27853 assessed as reduction in bacterial growth at pH 6.5 in presence of 50% serum. It counts as functional, organism-based.
A short description of series [7]: Cytotoxicity against mouse RAW264.7 cells assessed as inhibition of cell growth at pH 6.5 measured after 24 hrs by MTT assay. It counts as toxicity, cell-based.
Series [8] concerns Pseudomonas aeruginosa. The experiment in a line: Antimicrobial activity against Pseudomonas aeruginosa ATCC 27853 assessed as reduction in bacterial growth at pH 7.4 in presence of NaCl. It counts as functional, organism-based.
Series [9] deals with Pseudomonas aeruginosa. The experiment in a line: Antimicrobial activity against Pseudomonas aeruginosa ATCC 27853 assessed as reduction in bacterial growth at pH 7.4 in presence of 50% serum. It counts as functional, organism-based.
For series [10], the system named is Pseudomonas aeruginosa. The experiment in a line: Antimicrobial activity against Pseudomonas aeruginosa ATCC 27853 assessed as reduction in bacterial growth at pH 6.5 in presence of NaCl. It counts as functional.
The test system of series [11] is Pseudomonas aeruginosa. The experiment in a line: Antibacterial activity against Pseudomonas aeruginosa ATCC 27853 assessed as inhibition of bacterial growth at pH 7.4 incubated for 24 hrs by NCCLS protocol based method. It counts as functional.
Series [12] deals with Staphylococcus aureus. The experiment in a line: Antibacterial activity against Staphylococcus aureus ATCC 29213 assessed as inhibition of bacterial growth at pH 6.5 incubated for 24 hrs by NCCLS protocol based method. In kind it is functional.
In series [13] the test system is Cell membrane. The experiment in a line: Induction of outer membrane permeabilization in Pseudomonas aeruginosa ATCC 27853 assessed as increase in NPN uptake by NPN-dye based fluorescence analysis. The note with it: dose 1-64 µM. In kind it is subcellular.
Series [14] concerns Lipopolysaccharide (LPS). The experiment in a line: Displacement of BODIPY-TR-cadaverin from Pseudomonas aeruginosa ATCC 27316 Lipopolysaccharide at 1 to 64 uM at pH 6.5 incubated for 1 hr by fluorescence based analysis. The note with it: dose 1-64 µM.
Series [15] has as its system Staphylococcus aureus. The experiment in a line: Antibacterial activity against methicillin-resistant Staphylococcus aureus ATCC 43300 assessed as inhibition of bacterial growth at pH 7.4 incubated for 24 hrs by NCCLS protocol based method. In kind it is functional.
Series [16] has as its system Staphylococcus aureus. The experiment in a line: Antibacterial activity against Staphylococcus aureus ATCC 25923 assessed as inhibition of bacterial growth at pH 7.4 incubated for 24 hrs by NCCLS protocol based method. In kind it is functional.
Series [17] deals with Salmonella typhimurium. The experiment in a line: Antibacterial activity against Salmonella typhimurium ATCC 14028 assessed as inhibition of bacterial growth at pH 6.5 incubated for 24 hrs by NCCLS protocol based method. In kind it is functional, Salmonella enterica subsp. enterica serovar Typhimurium. As to conditions: Salmonella enterica.
Series [18] relates to Staphylococcus epidermidis. The experiment in a line: Antibacterial activity against Staphylococcus epidermidis ATCC 12228 assessed as inhibition of bacterial growth at pH 6.5 incubated for 24 hrs by NCCLS protocol based method. In kind it is functional.
The subject of series [19] is Escherichia coli. The experiment in a line: Antibacterial activity against Escherichia coli ATCC 25922 assessed as inhibition of bacterial growth at pH 7.4 incubated for 24 hrs by NCCLS protocol based method. It counts as functional.
Series [20] has as its system Staphylococcus epidermidis. The experiment in a line: Antibacterial activity against Staphylococcus epidermidis ATCC 12228 assessed as inhibition of bacterial growth at pH 7.4 incubated for 24 hrs by NCCLS protocol based method. It counts as functional.
In series [21] the test system is Escherichia coli. The experiment in a line: Antibacterial activity against Escherichia coli ATCC 25922 assessed as inhibition of bacterial growth at pH 6.5 incubated for 24 hrs by NCCLS protocol based method. It counts as functional.
Series [22] relates to Staphylococcus aureus. The experiment in a line: Antibacterial activity against Staphylococcus aureus ATCC 29213 assessed as inhibition of bacterial growth at pH 7.4 incubated for 24 hrs by NCCLS protocol based method. In kind it is functional.
Series [23] has as its system Salmonella typhimurium. The experiment in a line: Antibacterial activity against Salmonella enterica subsp. enterica serovar Typhimurium C77-31 assessed as inhibition of bacterial growth at pH 6.5 incubated for 24 hrs by NCCLS protocol based method. It counts as functional.
The subject of series [24] is Staphylococcus aureus. The experiment in a line: Antibacterial activity against Staphylococcus aureus ATCC 25923 assessed as inhibition of bacterial growth at pH 6.5 incubated for 24 hrs by NCCLS protocol based method. In kind it is functional.
The test system of series [25] is Salmonella typhimurium. The experiment in a line: Antibacterial activity against Salmonella enterica subsp. enterica serovar Typhimurium C77-31 assessed as inhibition of bacterial growth at pH 7.4 incubated for 24 hrs by NCCLS protocol based method. In kind it is functional.
The test system of series [26] is Lipopolysaccharide (LPS). The experiment in a line: Displacement of BODIPY-TR-cadaverin from Pseudomonas aeruginosa ATCC 27316 Lipopolysaccharide at 1 to 64 uM at pH 7.4 incubated for 1 hr by fluorescence based analysis. The note with it: dose 1-64 µM.
Series [27] concerns Cell membrane. The experiment in a line: Induction of cytoplasmic membrane depolarization in Pseudomonas aeruginosa ATCC 27853 assessed as increase in fluorescence intensity at acidic and alkaline pH by DiSC3-5 dye based fluorescence assay. The note with it: TDE = time-dependent effect. In kind it is subcellular.
Series [28] has as its system Pseudomonas aeruginosa. The experiment in a line: Antibacterial activity against Pseudomonas aeruginosa ATCC 27853 assessed as inhibition of bacterial growth at pH 6.5 incubated for 24 hrs by NCCLS protocol based method. It counts as functional.
The test system of series [29] is Staphylococcus aureus. The experiment in a line: Antibacterial activity against methicillin-resistant Staphylococcus aureus ATCC 43300 assessed as inhibition of bacterial growth at pH 6.5 incubated for 24 hrs by NCCLS protocol based method. It counts as functional.
The test system of series [30] is Salmonella typhimurium. The experiment in a line: Antibacterial activity against Salmonella typhimurium ATCC 14028 assessed as inhibition of bacterial growth at pH 7.4 incubated for 24 hrs by NCCLS protocol based method. As to conditions: Salmonella enterica. It counts as functional, Salmonella enterica subsp. enterica serovar Typhimurium.
Series [31] deals with Cell membrane. The experiment in a line: Induction of outer membrane permeabilization in Pseudomonas aeruginosa ATCC 27853 assessed as pH responsive ability by measuring fold increase in NPN uptake at 64 uM by NPN-dye based fluorescence analysis relative to control. In kind it is subcellular.
Series [32] relates to Mus musculus. The experiment in a line: Antiinflammatory activity in ICR cutaneous abscess mouse model assessed as reduction in IL-2 expression in serum at 5 mg/kg,ip administered twice a day measured after 72 hrs by ELISA (reference value: 1.53 +/ 0.06 10^3pg/ml). It counts as functional. On the technique in general: ELISA stands for enzyme-linked immunosorbent assay.
Series [33] has as its system Mus musculus. The experiment in a line: Antiinflammatory activity in ICR cutaneous abscess mouse model assessed as reduction in IL-1beta expression in serum at 5 mg/kg,ip administered twice a day measured after 72 hrs by ELISA (reference value: 9.9 +/ 0.47 10^1pg/ml). It counts as functional.
Series [34] concerns Pseudomonas aeruginosa. The experiment in a line: Antimicrobial activity against Pseudomonas aeruginosa ATCC 27853 infected in ICR cutaneous abscess mouse model assessed as complete epidermis structure at 5 mg/kg,ip administered twice a day measured after 3 days by hematoxylin and eosin staining based analysis. In kind it is functional, organism-based. As to conditions: time 3.0 day.

Series [35] has as its system Pseudomonas aeruginosa. The experiment in a line: Antimicrobial activity against Pseudomonas aeruginosa ATCC 27853 infected in ICR cutaneous abscess mouse model assessed as reduction in necrotic tissue area in infection site at 5 mg/kg,ip administered twice a day measured after 3 days by hematoxylin and eosin staining based analysis. In kind it is functional, organism-based. The note with it: time 3.0 day.

Series [36] has as its system Mus musculus. The experiment in a line: Antiinflammatory activity in ICR cutaneous abscess mouse model assessed as reduction in TNF-alpha expression in serum at 5 mg/kg,ip administered twice a day measured after 72 hrs by ELISA (reference value: 1.01 +/ 0.46 10^3 pg/ml). It counts as functional.
Series [37] has as its system Mus musculus. The experiment in a line: Antiinflammatory activity in ICR cutaneous abscess mouse model assessed as reduction in IL-1alpha expression in serum at 5 mg/kg,ip administered twice a day measured after 72 hrs by ELISA (reference value: 9.9 +/ 0.42 10^1pg/ml). It counts as functional.

The source made the active and inactive calls. The rule behind the calls is not given here.

For `CC[C@H](C)[C@H](NC(=O)CN)C(=O)NCC(=O)N[C@@H](C)C(=O)N[C@H](C(=O)N[C@@H](CC(C)C)C(=O)N[C@@H](CCCCN)C(=O)N[C@H](C(=O)N[C@@H](CC(C)C)C(=O)N[C@H](C(=O)N[C@H](C(=O)NCC(=O)N[C@@H](CC(C)C)C(=O)N1CCC[C@H]1C(=O)N[C@@H](C)C(=O)N[C@@H](CC(C)C)C(=O)N[C@H](C(=O)N[C@@H](CO)C(=O)N[C@@H](Cc1c[nH]c2ccccc12)C(=O)N[C@H](C(=O)N[C@@H](CCCCN)C(=O)N[C@@H](CCCNC(=N)N)C(=O)N[C@@H](CCCCN)C(=O)N[C@@H](CCCNC(=N)N)C(=O)N[C@@H](CCC(N)=O)C(=O)N[C@@H](CCC(N)=O)C(N)=O)[C@@H](C)CC)[C@@H](C)CC)[C@@H](C)O)[C@@H](C)O)C(C)C)C(C)C` [MELITTIN], the outcome in series [1], in series [6], in series [8], in series [9] and in series [10] was inactive. In addition, the MHC10 was 2 µM in [2] and 4 µM in series [5]. Also, in [3], the selectivity ratio is 0.5. Also, the IC50 at 24 h in series [4] amounted to 1940 nM; in [7] it was 1300 nM.
H-FLFKLIPKVIKGLVKAIRK-NH2: the MIC in [11] amounted to 4 µM; in series [12], 2 µM; in [15], 2 µM; in series [16], 2 µM; in series [17] it was 2 µM; in [18], 2 µM. For the same compound, the MIC in series [19] stood at 2 µM; in series [20], 2 µM; in [21], 1 µM; in series [22], 2 µM; in [23], 2 µM; in [24] it was 2 µM. The MIC in series [25] worked out at 4 µM; in series [28], 1 µM; in series [29] it was 2 µM; in series [30], 2 µM. Also, the MHC10 turned out to be 2 µM in [2] and 16 µM in series [5]. Besides, the Activity entry in series [13] was “Dose-Dependent Effect”; in [27] it was “Tde”. The selectivity ratio in series [3] amounted to 0.13. For the same compound, the outcome in series [14] and in [26] was Active. Moreover, the IC50 at 24 h stood at 2450 nM in series [4] and 1910 nM in series [7]. Moreover, the result in series [31] was inactive.
Turning to COLISTIN, the Activity in series [32] was 1.11 10^3pg/ml; in [33] it was 7.23 10^1pg/ml; in series [36] it was 8.06 10^2pg/ml; in series [37], 7.95 10^1pg/ml. The outcome in series [34] and in series [35] was Active.
H-FLHHLIPHVIHGLVHAIHH-NH2: the MIC in series [11] was greater than 64 µM; in series [12] it was 16 µM; in [15] it was 4 µM; in [16], 4 µM; in series [17], 4 µM; in series [18], 8 µM. Further, the MIC in [19] is 8 µM; in series [20] it was 4 µM; in series [21] it was 2 µM; in series [22] it was greater than 64 µM; in series [23], 2 µM; in [24] it was 8 µM. The MIC stood at 16 µM in series [25], 2 µM in series [28], 8 µM in series [29] and 16 µM in series [30]. Also, the MHC10 in series [2] and in series [5] was 64 µM in each case. In addition, the selectivity ratio in [3] is 1. Also, the values for the concentration for half-maximal inhibition (IC50) at 24 h in [4] and in series [7] were 70100 nM and 16100 nM, respectively.

As usually defined, the IC50 is the concentration at which inhibition is half-maximal. A word on the MIC: it is the lowest concentration that inhibits growth of the organism.

The values are drawn from ChEMBL document CHEMBL5046301, “pH-Responsive Antimicrobial Peptide with Selective Killing Activity for Bacterial Abscess Therapy” (J Med Chem, 2022).
